Patent publication US9295673B2, “Combination of mTOR inhibitors and P13-kinase inhibitors, and uses thereof” (Intellikine LLC, priority 2011, dated 2016)
Where two headings read alike, the source gives them in different places.

Assays:
PI3K γ = PI3K γ (Homo sapiens, UniProt P48736); experiment: PI 3-Kinase (human) HTRF assay, PI3K γ
PI3K δ = PI3K δ (Homo sapiens, UniProt O00329); experiment: PI 3-Kinase (human) HTRF assay, PI3K δ
PI3K β = PI3K β (Homo sapiens, UniProt P42338); experiment: PI 3-Kinase (human) HTRF assay, PI3K β; conditions: read-out: PI3K β IC50; Table 4
PI3K β, sequence (P42338 whole entry): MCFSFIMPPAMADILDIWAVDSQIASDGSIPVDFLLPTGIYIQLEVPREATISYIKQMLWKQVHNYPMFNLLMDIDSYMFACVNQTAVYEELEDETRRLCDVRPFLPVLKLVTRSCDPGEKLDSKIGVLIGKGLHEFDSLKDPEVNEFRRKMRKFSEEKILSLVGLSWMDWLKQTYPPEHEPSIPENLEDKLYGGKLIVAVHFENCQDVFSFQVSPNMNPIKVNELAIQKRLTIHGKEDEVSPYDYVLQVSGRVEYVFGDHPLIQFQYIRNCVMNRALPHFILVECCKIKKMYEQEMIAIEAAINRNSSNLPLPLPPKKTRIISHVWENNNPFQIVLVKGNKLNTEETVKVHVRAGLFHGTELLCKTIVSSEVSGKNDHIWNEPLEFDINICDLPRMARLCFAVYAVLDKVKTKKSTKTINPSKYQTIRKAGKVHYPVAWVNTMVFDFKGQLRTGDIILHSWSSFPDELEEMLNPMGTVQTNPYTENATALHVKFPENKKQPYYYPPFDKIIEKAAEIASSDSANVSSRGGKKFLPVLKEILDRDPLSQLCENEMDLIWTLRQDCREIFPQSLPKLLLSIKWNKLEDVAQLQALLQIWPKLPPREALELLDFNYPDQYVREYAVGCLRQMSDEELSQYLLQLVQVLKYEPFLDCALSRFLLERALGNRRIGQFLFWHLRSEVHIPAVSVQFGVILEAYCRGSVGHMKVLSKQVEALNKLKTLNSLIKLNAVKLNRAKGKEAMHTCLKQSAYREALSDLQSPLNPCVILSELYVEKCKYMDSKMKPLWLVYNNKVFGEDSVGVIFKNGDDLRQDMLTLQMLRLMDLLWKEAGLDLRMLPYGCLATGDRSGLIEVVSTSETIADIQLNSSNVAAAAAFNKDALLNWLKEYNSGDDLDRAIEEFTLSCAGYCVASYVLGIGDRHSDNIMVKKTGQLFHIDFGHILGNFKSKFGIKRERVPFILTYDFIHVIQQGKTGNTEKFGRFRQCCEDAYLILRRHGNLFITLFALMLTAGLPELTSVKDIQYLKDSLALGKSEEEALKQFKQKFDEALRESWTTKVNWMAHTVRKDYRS
PI3K β, sequence (P27986 whole entry partner): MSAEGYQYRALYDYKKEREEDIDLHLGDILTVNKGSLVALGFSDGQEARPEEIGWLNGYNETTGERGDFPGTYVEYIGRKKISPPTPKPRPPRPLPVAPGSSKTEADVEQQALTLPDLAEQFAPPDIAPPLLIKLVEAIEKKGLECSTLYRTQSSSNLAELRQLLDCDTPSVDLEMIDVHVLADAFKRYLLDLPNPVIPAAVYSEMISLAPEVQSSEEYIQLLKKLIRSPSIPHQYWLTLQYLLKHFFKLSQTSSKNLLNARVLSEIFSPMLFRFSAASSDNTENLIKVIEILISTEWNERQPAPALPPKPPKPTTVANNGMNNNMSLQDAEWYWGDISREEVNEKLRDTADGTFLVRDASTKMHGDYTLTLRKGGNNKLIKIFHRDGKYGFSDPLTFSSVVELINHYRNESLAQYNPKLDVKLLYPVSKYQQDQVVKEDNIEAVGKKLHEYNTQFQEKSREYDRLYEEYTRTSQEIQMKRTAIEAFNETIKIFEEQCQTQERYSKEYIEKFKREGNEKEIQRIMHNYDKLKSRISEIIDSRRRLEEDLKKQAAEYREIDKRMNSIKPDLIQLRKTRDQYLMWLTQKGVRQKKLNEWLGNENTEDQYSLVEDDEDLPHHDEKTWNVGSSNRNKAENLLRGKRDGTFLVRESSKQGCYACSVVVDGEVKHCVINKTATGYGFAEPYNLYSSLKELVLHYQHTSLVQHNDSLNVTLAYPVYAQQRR

PI3K γ, sequence (P48736 whole entry): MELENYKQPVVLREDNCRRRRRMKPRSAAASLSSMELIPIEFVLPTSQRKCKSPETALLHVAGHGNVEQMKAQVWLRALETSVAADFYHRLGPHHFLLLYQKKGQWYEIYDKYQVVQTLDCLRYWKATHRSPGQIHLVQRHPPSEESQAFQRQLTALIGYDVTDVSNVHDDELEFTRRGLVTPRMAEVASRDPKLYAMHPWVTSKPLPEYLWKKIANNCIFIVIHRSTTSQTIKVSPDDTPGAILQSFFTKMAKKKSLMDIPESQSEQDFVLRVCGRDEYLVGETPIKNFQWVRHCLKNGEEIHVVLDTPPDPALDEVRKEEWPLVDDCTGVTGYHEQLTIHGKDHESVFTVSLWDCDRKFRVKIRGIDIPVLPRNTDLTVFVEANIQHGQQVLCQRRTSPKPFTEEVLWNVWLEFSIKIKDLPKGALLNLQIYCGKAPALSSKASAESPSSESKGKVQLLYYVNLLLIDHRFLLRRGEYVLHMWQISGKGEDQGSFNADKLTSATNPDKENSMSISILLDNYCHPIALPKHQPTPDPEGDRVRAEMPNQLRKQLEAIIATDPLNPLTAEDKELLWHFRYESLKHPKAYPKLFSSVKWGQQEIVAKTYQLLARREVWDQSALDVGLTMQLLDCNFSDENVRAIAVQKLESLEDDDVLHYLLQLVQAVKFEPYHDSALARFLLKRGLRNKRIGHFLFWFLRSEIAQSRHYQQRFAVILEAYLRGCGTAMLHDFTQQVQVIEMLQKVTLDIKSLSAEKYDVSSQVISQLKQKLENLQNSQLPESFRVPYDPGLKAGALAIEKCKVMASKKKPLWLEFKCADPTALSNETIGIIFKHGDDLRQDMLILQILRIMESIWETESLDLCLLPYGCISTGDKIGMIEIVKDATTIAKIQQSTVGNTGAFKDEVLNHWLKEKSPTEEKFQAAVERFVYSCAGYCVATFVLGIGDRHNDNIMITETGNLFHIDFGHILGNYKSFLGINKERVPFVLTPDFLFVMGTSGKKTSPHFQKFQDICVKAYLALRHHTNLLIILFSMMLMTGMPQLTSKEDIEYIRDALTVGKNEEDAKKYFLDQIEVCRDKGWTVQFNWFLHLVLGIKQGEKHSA
PI3K δ, sequence (O00329 whole entry): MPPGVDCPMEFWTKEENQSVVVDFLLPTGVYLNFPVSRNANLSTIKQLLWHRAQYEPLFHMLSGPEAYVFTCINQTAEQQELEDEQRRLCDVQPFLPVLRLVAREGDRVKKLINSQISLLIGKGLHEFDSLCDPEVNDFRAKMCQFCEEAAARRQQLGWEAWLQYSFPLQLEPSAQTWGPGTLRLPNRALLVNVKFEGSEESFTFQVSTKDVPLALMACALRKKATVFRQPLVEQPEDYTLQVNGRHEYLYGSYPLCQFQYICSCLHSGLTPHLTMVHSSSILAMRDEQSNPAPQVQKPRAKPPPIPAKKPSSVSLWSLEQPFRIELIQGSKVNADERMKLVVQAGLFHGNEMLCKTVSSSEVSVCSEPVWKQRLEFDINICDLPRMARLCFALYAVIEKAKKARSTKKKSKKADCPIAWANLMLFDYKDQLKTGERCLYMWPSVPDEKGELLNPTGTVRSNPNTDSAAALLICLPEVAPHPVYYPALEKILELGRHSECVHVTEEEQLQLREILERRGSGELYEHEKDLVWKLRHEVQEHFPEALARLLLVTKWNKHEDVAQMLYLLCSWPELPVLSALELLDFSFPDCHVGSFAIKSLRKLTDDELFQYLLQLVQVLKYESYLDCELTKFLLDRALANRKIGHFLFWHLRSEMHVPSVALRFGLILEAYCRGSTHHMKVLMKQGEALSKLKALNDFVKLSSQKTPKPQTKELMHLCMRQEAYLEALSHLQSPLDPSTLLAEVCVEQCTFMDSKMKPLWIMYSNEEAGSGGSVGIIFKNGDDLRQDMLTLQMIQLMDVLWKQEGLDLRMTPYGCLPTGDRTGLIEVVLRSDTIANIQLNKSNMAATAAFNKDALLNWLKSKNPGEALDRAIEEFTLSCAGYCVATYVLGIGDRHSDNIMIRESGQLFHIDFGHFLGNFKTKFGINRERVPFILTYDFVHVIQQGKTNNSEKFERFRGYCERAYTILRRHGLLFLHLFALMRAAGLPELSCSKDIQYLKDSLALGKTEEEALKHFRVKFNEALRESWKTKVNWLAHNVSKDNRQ
PI3K δ, sequence (P27986 whole entry partner): as the sequence (P27986 whole entry partner) above

Row | Compound | IC50 (PI3K δ; read-out: PI3K δ IC50, Table 4) [µM] | IC50 (PI3K β) [µM] | further results
1 | CN1CCC(Oc2ncnc3ccc(-c4ccc5oc(N)nc5c4)cc23)CC1 [Compound 34] |  |  | IC50 (PI3K γ; read-out: PI3K γ IC50): < 0.1 µM
2 | CC(N)C(=O)N1CCN(c2cnc3ccc(-c4ccc5oc(N)nc5c4)cc3n2)CC1 (centres unmarked) [Compound 134] |  |  | IC50 (PI3K γ; read-out: PI3K γ IC50): < 10 µM
3 | C[C@@H]1CN(c2cnc3ccc(-c4ccc5oc(N)nc5c4)cc3n2)CCN1 [Compound 179] |  |  | IC50 (PI3K δ; read-out: PI3K δ IC50): < 10 µM
4 | NC(=O)[C@H]1CCCN1C(=O)c1cnc2ccc(-c3ccc4oc(N)nc4c3)cn12 [Compound 260] |  |  | IC50 (PI3K γ; read-out: PI3K γ IC50): < 10 µM
5 | Nc1nc2cc(-c3ccc4ncc(C(=O)N5CC[C@H](O)C5)n4c3)ccc2o1 [Compound 264] |  |  | IC50 (PI3K δ; read-out: PI3K δ IC50): < 10 µM
6 | Nc1nc2cc(-c3ccc4ncc(C(=O)N5CC[C@@H](O)C5)n4c3)ccc2o1 [Compound 265] |  |  | IC50 (PI3K δ; read-out: PI3K δ IC50): < 10 µM
7 | Nc1nc2cc(-c3ccc4ncc(N5CC(N6CC[C@H](O)C6)C5)nc4c3)ccc2o1 [Compound 322] |  |  | IC50 (PI3K δ; read-out: PI3K δ IC50): < 10 µM
8 | CN1CCN([C@H]2CCN(c3cnc4ccc(-c5ccc6oc(N)nc6c5)cc4n3)C2)CC1 [Compound 381] |  |  | IC50 (PI3K δ; read-out: PI3K δ IC50): < 10 µM
9 | C[C@H]1CN(c2cnc3ccc(-c4ccc5oc(N)nc5c4)cc3n2)CCN1 [Compound 396] |  |  | IC50 (PI3K γ): < 10 µM; IC50 (PI3K δ): > 10 µM
10 | Cc1ncc(-c2ccc3ncc(C(=O)N4CCOCC4)n3c2)c2cn[nH]c12 [Compound 530] |  |  | IC50 (PI3K δ; read-out: PI3K δ IC50, in vitro): < 10 µM
11 | C[C@H]1CN(c2cnc3ccc(-c4ccc5oc(N)nc5c4)nc3n2)CCN1 [Compound 552] | < 10 |  | IC50 (PI3K γ; read-out: PI3K γ IC50, Table 4): < 10 µM
12 | Nc1nc2cc(-c3ccc4ncc(-c5cccnc5)nc4n3)ccc2o1 [Compound 554] |  | < 10 | 
13 | CN1CCN(c2cnc3ccc(-c4ccc5oc(N)nc5c4)nc3n2)CC1 [Compound 555] |  |  | IC50 (PI3K γ; read-out: PI3K γ IC50, Table 4): < 10 µM; IC50 (PI3K δ; read-out: PI3K δ IC50): < 10 µM
14 | Nc1nc2cc(-c3ccc4ncc(N5CC(N6CCOCC6)C5)nc4n3)ccc2o1 [Compound 556] |  |  | IC50 (PI3K γ; read-out: PI3K γ IC50, Table 4): < 10 µM; IC50 (PI3K δ; read-out: PI3K δ IC50): < 10 µM
15 | CCOC(=O)N1CC=C(c2cnc3ccc(-c4ccc5oc(N)nc5c4)nc3n2)CC1 [Compound 560] | < 10 | < 10 | 
16 | Nc1nc2cc(-c3ccc4ncc(C5=CCOCC5)nc4n3)ccc2o1 [Compound 562] |  | < 10 | 
17 | C[C@@H]1COCCN1c1cnc2ccc(-c3ccc4oc(N)nc4c3)nc2n1 [Compound 565] | < 10 | < 10 | 

Row | Compound | IC50 (PI3K δ; read-out: PI3K δ IC50, Table 4) [µM] | IC50 (PI3K β) [µM] | further results
18 | C[C@H]1COCCN1c1cnc2ccc(-c3ccc4oc(N)nc4c3)nc2n1 [Compound 566] |  | < 10 | 
19 | Nc1nc2cc(-c3ccc4ncc(-c5cccnc5)cc4n3)ccc2o1 [Compound 567] | < 10 | < 10 | 
20 | CCN(CC)c1cnc2ccc(-c3ccc4oc(N)nc4c3)nc2n1 [Compound 577] | < 10 |  | 
21 | C[C@@H]1CN(c2cnc3ccc(-c4ccc5oc(N)nc5c4)nc3n2)CCN1 [Compound 578] | < 10 |  | 
22 | C[C@@H](N)C(=O)N1CCN(c2cnc3ccc(-c4ccc5oc(N)nc5c4)nc3n2)CC1 [Compound 582] |  | < 10 | IC50 (PI3K δ; read-out: PI3K δ IC50): < 10 µM
23 | CC(C)N1CCN(c2cnc3ccc(-c4ccc5oc(N)nc5c4)nc3n2)CC1 [Compound 583] | < 10 |  | 
24 | NCC(=O)N1CCN(c2cnc3ccc(-c4ccc5oc(N)nc5c4)nc3n2)CC1 [Compound 584] | < 10 | < 10 | 
25 | Nc1nc2cc(-c3ccc4ncc(N5CC(N6CCN(CC7CC7)CC6)C5)nc4n3)ccc2o1 [Compound 586] | < 10 | < 10 | IC50 (PI3K γ; read-out: PI3K γ IC50, Table 4): < 10 µM
26 | CC(C)(N)C(=O)N1CCN(c2cnc3ccc(-c4ccc5oc(N)nc5c4)nc3n2)CC1 [Compound 591] |  | < 10 | IC50 (PI3K γ; read-out: PI3K γ IC50, Table 4): < 10 µM; IC50 (PI3K δ; read-out: PI3K δ IC50): < 10 µM
27 | Nc1nc2cc(-c3ccc4ncc(N5CCC(O)CC5)nc4n3)ccc2o1 [Compound 596] |  | < 10 | 
28 | C[C@H]1CN(c2cnc3ccc(-c4ccc5oc(N)nc5c4)nc3c2)CCN1 [Compound 598] |  |  | IC50 (PI3K δ; read-out: PI3K δ IC50): < 10 µM
29 | Cc1nccn1C1CN(c2cnc3ccc(-c4ccc5oc(N)nc5c4)nc3n2)C1 [Compound 601] | < 10 | < 10 | IC50 (PI3K γ; read-out: PI3K γ IC50, Table 4): < 10 µM
30 | Nc1nc2cc(-c3ccc4ncc(N5CC(N6CCOCC6)C5)cc4n3)ccc2o1 [Compound 604] |  | < 10 | IC50 (PI3K δ; read-out: PI3K δ IC50): < 10 µM
31 | C[C@H]1COCCN1C1CN(c2cnc3ccc(-c4ccc5oc(N)nc5c4)nc3n2)C1 [Compound 612] | < 10 |  | IC50 (PI3K γ; read-out: PI3K γ IC50, Table 4): < 10 µM
32 | C[C@H]1COCCN1C1CN(c2cnc3ccc(-c4ccc5oc(N)nc5c4)nc3c2)C1 [Compound 619] |  |  | IC50 (PI3K γ; read-out: PI3K γ IC50, Table 4): < 10 µM
33 | Nc1nc2cc(-c3ccc4ncc(N5CC(N6CCN(C7CC7)CC6)C5)nc4n3)ccc2o1 [Compound 620] |  | < 10 | IC50 (PI3K γ; read-out: PI3K γ IC50, Table 4): < 10 µM; IC50 (PI3K δ; read-out: PI3K δ IC50): < 10 µM
34 | CCN1CCN(C2CN(c3cnc4ccc(-c5ccc6oc(N)nc6c5)nc4c3)C2)CC1 [Compound 626] |  |  | IC50 (PI3K γ; read-out: PI3K γ IC50, Table 4): < 10 µM

The next lines start with results.

Row | IC50 (PI3K δ; read-out: PI3K δ IC50, Table 4) [µM] | IC50 (PI3K β) [µM] | Compound | further results
35 | < 10 |  | CS(=O)(=O)N1CCN(C2CN(c3cnc4ccc(-c5ccc6oc(N)nc6c5)nc4n3)C2)CC1 [Compound 559] | 
36 | < 10 |  | C[C@H]1CN(C2CN(c3cnc4ccc(-c5ccc6oc(N)nc6c5)nc4n3)C2)CCN1 [Compound 561] | IC50 (PI3K γ; read-out: PI3K γ IC50, Table 4): < 10 µM
37 | < 10 |  | C[C@@H]1CN(C2CN(c3cnc4ccc(-c5ccc6oc(N)nc6c5)nc4n3)C2)CCN1 [Compound 563] | 
38 | < 10 |  | C[C@H]1CN(C2CN(c3cnc4ccc(-c5ccc6oc(N)nc6c5)nc4n3)C2)CCN1C [Compound 572] | 
39 | < 10 |  | CN1CCN(c2cnc3ccc(-c4ccc5oc(N)nc5c4)nc3c2)CC1 [Compound 575] | 
40 | < 10 |  | C[C@@H]1CN(C2CN(c3cnc4ccc(-c5ccc6oc(N)nc6c5)nc4n3)C2)CCN1C [Compound 576] | IC50 (PI3K γ; read-out: PI3K γ IC50, Table 4): < 10 µM
41 |  | < 10 | CCOC(=O)N1CCN(c2cnc3ccc(-c4ccc5oc(N)nc5c4)nc3c2)CC1 [Compound 587] | 
42 | < 10 | < 10 | Nc1nc2cc(-c3ccc4ncc(N5CC(N6CCN(CCO)CC6)C5)nc4n3)ccc2o1 [Compound 597] | IC50 (PI3K γ; read-out: PI3K γ IC50, Table 4): < 10 µM
43 |  | < 10 | CC1(C)CN(C2CN(c3cnc4ccc(-c5ccc6oc(N)nc6c5)nc4n3)C2)CCN1 [Compound 603] | 
44 |  | < 10 | C[C@H]1CN(C2CN(c3cnc4ccc(-c5ccc6oc(N)nc6c5)nc4c3)C2)CCN1 [Compound 605] | IC50 (PI3K γ; read-out: PI3K γ IC50, Table 4): < 10 µM
45 |  | < 10 | CC1(C)CN(C2CN(c3cnc4ccc(-c5ccc6oc(N)nc6c5)nc4c3)C2)CCN1 [Compound 609] | 
46 |  | < 10 | Nc1nc2cc(-c3ccc4ncc(N5CC(N6CCN(CC7CC7)CC6)C5)cc4n3)ccc2o1 [Compound 611] | IC50 (PI3K γ; read-out: PI3K γ IC50, Table 4): < 10 µM
47 | < 10 | < 10 | Nc1nc2cc(-c3ccc4ncc(N5CCC(O)CC5)cc4n3)ccc2o1 [Compound 613] | 
48 |  | < 10 | Cc1nccn1C1CN(c2cnc3ccc(-c4ccc5oc(N)nc5c4)nc3c2)C1 [Compound 614] | 
49 |  | < 10 | CN1CCN(C2CN(c3cnc4ccc(-c5ccc6oc(N)nc6c5)nc4c3)C2)CC1=O [Compound 615] | 
50 |  | < 10 | Nc1nc2cc(-c3ccc4ncc(N5CC(N6CCN(CCO)CC6)C5)cc4n3)ccc2o1 [Compound 616] | 
51 |  | < 10 | C[C@@H]1COCCN1C1CN(c2cnc3ccc(-c4ccc5oc(N)nc5c4)nc3c2)C1 [Compound 617] | 
52 | < 10 | < 10 | Nc1nc2cc(-c3ccc4ncc(N5CC(N6CCN(C7CC7)CC6)C5)cc4n3)ccc2o1 [Compound 621] | 
53 |  | < 10 | CN1CCN(C2CN(c3cnc4ccc(-c5ccc6oc(N)nc6c5)nc4n3)C2)CC1 [Compound 622] | 
54 | < 10 | < 10 | CCN1CCN(C2CN(c3cnc4ccc(-c5ccc6oc(N)nc6c5)nc4n3)C2)CC1 [Compound 627] | IC50 (PI3K γ; read-out: PI3K γ IC50, Table 4): < 10 µM
